According to PMC9678865, “An odorant-binding protein in the elephant's trunk is finely tuned to sex pheromone (Z)-7-dodecenyl acetate” (Scientific Reports, 2022):
Entries after “also recorded” stand apart in the source; their conditions may differ. One block for each compound: values may come before it.

What was measured:
[1] = tested on: second major band (apparent mass around 25 kDa) from expression of LafrOBP1 in P. pastoris; assay: Binding of 1-NPN to the second band (around 25 kDa) from LafrOBP1 expression; design: species or system African elephant (Loxodonta africana); conditions: purified second band
Source text: Based on above-reported proteomic analysis and on the available sequences in the protein databases, we decided to focus our functional study on the OBP1 of both species. Thus, LafrOBP1 and EmaxOBP1 were expressed in the yeast Pichia pastoris using the protocol reported in the Materials and Methods section. We chose to perform functional studies on recombinant proteins because attempts to purify natural LafrOBP1 from its contaminants were unsuccessful (data not shown). The recombinant proteins were secreted in the culture medium, concentrated by ultrafiltration and purified by anion-exchange chromatography, followed by a step of hydrophobic interaction chromatography on Phenyl Sepharose. Figure S3 reports the SDS-PAGE analysis relative to the expression and purification of the two proteins. The expression of EmaxOBP1 produced a single major band migrating with an apparent molecular weight (around 20 kDa), compatible with the calculated mass for this protein (18,506.7 Da). Instead, the expression of the African elephant orthologue afforded two major bands, the first migrating at the same level as EmaxOBP1, the second with an apparent mass around 25 kDa.

[2] = target: T1, recombinant EmaxOBP1 (Elephas maximus, UniProt Q8HZN2); assay: Titration of recombinant protein with fluorescent probe 1-NPN; format: binding, Asian elephant (Elephas maximus); conditions: 2 μM protein in 50 mM Tris-HCl pH 7.4, room temperature
T1 sequence (Q8HZN2 entry or part of it): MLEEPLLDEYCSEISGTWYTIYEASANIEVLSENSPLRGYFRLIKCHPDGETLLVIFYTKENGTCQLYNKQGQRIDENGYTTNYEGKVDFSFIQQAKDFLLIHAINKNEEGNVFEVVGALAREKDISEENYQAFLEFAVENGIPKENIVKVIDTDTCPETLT
Description: (§1) Affinities of the fluorescent probe N-phenyl-1-naphthylamine (1-NPN) to EmaxOBP1 and LafrOBP1 (both expressed in yeast) were evaluated by titrating a 2 μM solution of each protein in 50 mM Tris-HCl, pH 7.4 with 1 mM 1-NPN in methanol to final concentrations of 2–16 μM. Dissociation constants of other ligands were measured by displacement of the fluorescent reporter 1-NPN from the complex. Accordingly, solutions of protein and 1-NPN, both at the concentration of 2 μM in 50 mM Tris-HCl, pH 7.4, were titrated with 1 mM methanol solutions of each ligand to final concentrations of 2–16 μM. Emission spectra were recorded on a PerkinElmer FL 6500 spectrofluorimeter in a right-angle configuration, at room temperature, with slits of 5 nm for both excitation and emission, using 1 cm path quartz cuvettes. The excitation wavelength was set at 337 nm and intensities were recorded in correspondence with the peak maximum, around 390 nm. Data for 1-NPN were processed with Prism software.

[3] = tested on: OBP in the trunk wash of the Asian elephant; design: method as in PMID 12269821; conditions: tritium-labelled ligand; radioactivity associated with OBP band; no dissociation constant; cited from earlier work
[4] = target: recombinant LafrOBP1 (Loxodonta africana, UniProt G3UMG1); assay: Competitive binding by displacement of 1-NPN; design: species or system African elephant (Loxodonta africana); conditions: protein and 1-NPN 2 μM each, ligand 2–16 μM
recombinant LafrOBP1, sequence (G3UMG1 entry or part of it): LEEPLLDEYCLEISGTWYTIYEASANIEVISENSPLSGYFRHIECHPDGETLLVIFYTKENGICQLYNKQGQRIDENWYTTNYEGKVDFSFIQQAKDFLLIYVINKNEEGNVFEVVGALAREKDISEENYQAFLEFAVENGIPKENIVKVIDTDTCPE
Description: (§2) Recombinant LafrOBP1 and EmaxOBP1 were then tested in ligand-binding assays using the Asian elephant pheromones (Z)-7-dodecenyl acetate and frontalin, and the insect pheromone components found in elephants, exo-brevicomin and (E)-β-farnesene, as well as structurally related compounds, and chemicals of different size and structure, which could contribute to estimate the specificity of these proteins. Both LafrOBP1 and EmaxOBP1 bound the fluorescent probe 1-NPN with good affinity (Fig. 5A), thus enabling the use of the fluorescent displacement assay to evaluate the affinities of other ligands. Some representative curves of competitive binding experiments for LafrOBP1 are shown in Fig. 5B-C, while in the histogram of Fig. 5D the binding spectra of LafrOBP1 and EmaxOBP1 are compared. The specificity of LafrOBP1 can be better appreciated from the graph of Fig. 6, where the affinities of esters to the protein are plotted as a function of the ligand's size.
as §1
(§3) Dissociation constants of other ligands were calculated from the corresponding [IC]50 values (the. concentration of each ligand halving the initial value of fluorescence), using the equation: Kd = [IC]50/1 + [1-NPN]/KNPN, where [1-NPN] is the concentration of free 1-NPN and KNPN the. dissociation constant of the complex OBP/1-NPN.

[5] = target: T1, recombinant EmaxOBP1; assay: Competitive binding by displacement of 1-NPN; design: species or system Asian elephant (Elephas maximus); conditions: protein and 1-NPN 2 μM each, ligand 2–16 μM
Description: as §2, §1, §3

[6] = target: natural LafrOBP1 (trunk wash fractions 26–29, also containing its isoform and LafrVEG) (Loxodonta africana, UniProt G3UMG1); assay: Competitive fluorescent (1-NPN) ligand-binding assay on crude anion-exchange fractions 26–29 of trunk wash; design: species or system African elephant (Loxodonta africana); conditions: crude trunk wash fractions 26–29 / natural LafrOBP1
natural LafrOBP1 (trunk wash fractions 26–29, also containing its isoform and LafrVEG), sequence (G3UMG1 entry or part of it): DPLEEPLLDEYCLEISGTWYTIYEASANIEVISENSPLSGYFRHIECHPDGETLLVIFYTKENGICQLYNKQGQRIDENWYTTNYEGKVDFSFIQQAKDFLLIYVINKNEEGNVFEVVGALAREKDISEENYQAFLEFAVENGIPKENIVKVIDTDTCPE
Description: Given the predominant presence of LafrOBP1 in the trunk wash of the African elephant, we attempted purification of this protein from a crude sample of this secretion by anion-exchange chromatography. Relevant fractions (#26–29) were analysed by SDS-PAGE, (Fig. 2A) and nanoLC-ESI-Q-Orbitrap-MS/MS to identify the proteins present and detect possible PTMs. The same fractions were also tested in ligand-binding assays with some of the two elephants' pheromones and other potential semiochemicals to detect any binding activity (Fig. 2B-C).
Figure 2 (A) Fractionation of a crude extract of trunk wash from the African elephant by anion-exchange chromatography. SDS-PAGE analysis of the fractions showing electrophoretic bands in the low molecular weight range (15–25 kDa). (B) Summary of the affinities to (Z)-7-dodecenyl acetate, (E)-β-farnesene and frontalin measured with crude samples of the same fractions. All of them bound with good affinity both (Z)-7-dodecenyl acetate and (E)-β-farnesene. […] Dissociation constants were evaluated using the procedure adopted when dealing with solutions of a pure protein; as this is not the case, the values have to be taken as a crude indication of the affinity of the ligands for the protein. (C) Examples of the competition curves measured with the three ligands on fraction 27. […]
as §1, with “Accordingly, solutions of protein and 1-NPN, both at the concentration of 2 μM in 50 mM Tris-HCl, pH 7.4, were titrated with 1 mM methanol solutions of each ligand to final concentrations of 2–16 μM.” left out, “Data for 1-NPN were processed with Prism software.” left out

Structure (SMILES): c1ccc(Nc2cccc3ccccc23)cc1 [1-NPN, N-phenyl-1-naphthylamine]
- affinity to the 25 kDa band (in words) [1]: did not show any affinity
- Kd [2]: 460 nM

Structure (SMILES): CCCC/C=C/CCCCCCOC(C)=O [(E)-7-dodecenyl acetate]
- binding to trunk wash OBP (in words) [3]: shown to bind

Structure (SMILES): CCCC/C=C\CCCCCCCCCC=O [(Z)-11-hexadecenal]
- binding to recombinant LafrOBP1 (in words) [4]: did not show significant binding; also recorded: did not exhibit significant affinity
- binding to recombinant EmaxOBP1 (in words) [5]: did not show significant binding; also recorded: did not exhibit significant affinity

Structure (SMILES): CCCC/C=C\CCCCCCCCCCCC=O [(Z)-13-octadecenal]
- binding to recombinant LafrOBP1 (in words) [4]: did not show significant binding; also recorded: did not exhibit significant affinity
- binding to recombinant EmaxOBP1 (in words) [5]: did not show significant binding; also recorded: did not exhibit significant affinity

Structure (SMILES): CC1(C)C2CCC1(C)C(O)C2 (stereo not drawn) [borneol]
- binding to recombinant LafrOBP1 (in words) [4]: did not show significant binding
- binding to recombinant EmaxOBP1 (in words) [5]: did not show significant binding

Structure (SMILES): CCCCCCCCCC=O [decanal]
- binding to recombinant LafrOBP1 (in words) [4]: did not show significant binding; also recorded: did not exhibit significant affinity
- binding to recombinant EmaxOBP1 (in words) [5]: did not show significant binding; also recorded: did not exhibit significant affinity

Structure (SMILES): CC12CCC(CC1)C(C)(C)O2 [eucalyptol]
- binding to recombinant LafrOBP1 (in words) [4]: did not show significant binding
- binding to recombinant LafrOBP1 (in words) ([4]; listed as eucaliptol): did not exhibit significant affinity
- binding to recombinant EmaxOBP1 (in words) [5]: did not show significant binding
- binding to recombinant EmaxOBP1 (in words) ([5]; listed as eucaliptol): did not exhibit significant affinity

Structure (SMILES): C=CCc1ccc(O)c(OC)c1 [eugenol]
- binding to recombinant LafrOBP1 (in words) [4]: did not show significant binding; also recorded: did not exhibit significant affinity
- binding to recombinant EmaxOBP1 (in words) [5]: did not show significant binding; also recorded: did not exhibit significant affinity

Structure (SMILES): CCCCCC=O [hexanal]
- binding to recombinant LafrOBP1 (in words) [4]: did not exhibit significant affinity
- binding to recombinant EmaxOBP1 (in words) [5]: did not exhibit significant affinity

Structure (SMILES): CCCCCCCC=O [octanal]
- binding to recombinant LafrOBP1 (in words) [4]: did not show significant binding; also recorded: did not exhibit significant affinity
- binding to recombinant EmaxOBP1 (in words) [5]: did not show significant binding; also recorded: did not exhibit significant affinity

Structure (SMILES): Cc1ccc(O)cc1 [p-cresol]
- binding to recombinant LafrOBP1 (in words) [4]: did not exhibit significant affinity
- binding to recombinant EmaxOBP1 (in words) [5]: did not exhibit significant affinity

Further lines, with some results ahead:

- binding to recombinant LafrOBP1 (in words) [4]: good ligand
Structure (SMILES): C=CC(=C)CC/C=C(\C)CCC=C(C)C [(E)-β-farnesene, (6E)-7,11-dimethyl-3-methylene-1,6,10-dodecatriene]

- binding to recombinant LafrOBP1 (in words) [4]: did not show significant binding
- binding to recombinant EmaxOBP1 (in words) [5]: did not show significant binding
Structure (SMILES): CC/C=C\CCOC(C)=O [(Z)-3-hexenyl acetate]

- binding to recombinant LafrOBP1 (in words) [4]: strongest ligand
Structure (SMILES): CCCC/C=C\CCCCCCOC(C)=O [(Z)-7-dodecenyl acetate]

- binding to recombinant LafrOBP1 (in words) [4]: did not show significant binding
- binding to recombinant EmaxOBP1 (in words) [5]: did not show significant binding
Structure (SMILES): CCCCCC/C=C\CCCCCCCC=O [(Z)-9-hexadecenal]

- binding to recombinant LafrOBP1 (in words) [4]: did not show significant binding
- binding to recombinant EmaxOBP1 (in words) [5]: did not show significant binding
Structure (SMILES): CCCC/C=C\CCCCCCCCCCOC(C)=O [(Z)-11-hexadecenyl acetate]

- binding to recombinant LafrOBP1 (in words) [4]: did not show significant binding
- binding to recombinant EmaxOBP1 (in words) [5]: did not show significant binding
Structure (SMILES): CCCCCCCCCCCC=O [dodecanal]

- binding to recombinant LafrOBP1 (in words) [4]: did not show significant binding
- binding to recombinant EmaxOBP1 (in words) [5]: did not show significant binding
Structure (SMILES): CCCCCCCCCCCCCC(=O)OCC [ethyl myristate]

- binding to trunk wash fractions (in words) [6]: did not exhibit any affinity
Structure (SMILES): CC[C@H]1O[C@]2(C)CCC[C@H]1O2 [exo-brevicomin, (1R,5S,7R)-7-ethyl-5-methyl-6,8-dioxabicyclo[3.2.1]octane]

- binding to trunk wash fractions (in words) [6]: as good a ligand as (E)- β-farnesene
Structure (SMILES): CC(C)=CCC/C(C)=C/CC/C(C)=C/CO [farnesol]

- binding to recombinant EmaxOBP1 (in words) [5]: no affinity
Structure (SMILES): CC12CCCC(C)(OC1)O2 (stereo not drawn) [frontalin, 1,5-dimethyl-6,8-dioxabicyclo[3.2.1]octane]
- binding to trunk wash fractions (in words) [6]: none of them appreciably bound; also recorded: no affinity
- binding to recombinant LafrOBP1 (in words) [4]: no affinity; also recorded: did not exhibit any affinity

- binding to recombinant LafrOBP1 (in words) [4]: did not show significant binding
- binding to recombinant EmaxOBP1 (in words) [5]: did not show significant binding
Structure (SMILES): CCCCCCCCCC1CCC(=O)O1 (stereo not drawn) [γ-tridecalactone]
